Measurements reported in ChEMBL document CHEMBL1201862, “PubChem BioAssay data set” (2004).
One block for each molecule: values may come before it. Activity calls are given as the source filed them.

What was measured:
[1] = biological target: G-protein coupled receptor 183 (Homo sapiens, UniProt P32249); experiment: SAR confirmation of small molecule antagonists of the EBI2 receptor via a luminescent beta-arrestin assa.; assay type: functional
[2] = biological target: T1, Low molecular weight phosphotyrosine protein phosphatase (Homo sapiens, UniProt P24666); experiment: inhibition of human LMPTP enzyme activity – biochemical, absorbance, pNPP substrate, LMPTP-A isoform, set 2, orthogonal assay, dose response (AID 743308); assay type: functional
T1 sequence (P24666 whole entry): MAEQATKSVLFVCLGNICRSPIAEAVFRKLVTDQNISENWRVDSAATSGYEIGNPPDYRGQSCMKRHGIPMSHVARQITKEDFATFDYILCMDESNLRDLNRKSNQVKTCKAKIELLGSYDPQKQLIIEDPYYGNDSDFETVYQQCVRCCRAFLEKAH

[3] = biological target: T1, Low molecular weight phosphotyrosine protein phosphatase; experiment: inhibition of LMPTP-A enzymatic activity – biochemical, OMFP substrate, fluorescence intensity, set 2, dose response (AID 743307); assay type: functional
[4] = toxicity to human HepG2 hepatoma cells – cell-based, plate reader, dry powder samples, cytotoxicity control, dose response (AID 1159569); assay type: functional;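 further: inhibitor potency with signal falling toward the positive control level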
[5] = growth inhibition of yeast DHODH-expressing 3D7 parasites – SYBR Green, dry powder samples, dose response (AID 1159570); assay type: functional, cell-based;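 further: parasite growth measured after 72 hours of compound exposure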
[6] = A2780 cell killing – plate reader, dry powder samples, cytotoxicity control, dose response (AID 743046); assay type: functional, cell-based
[7] = blockade of melanocortin 4 receptor signaling – cell-based, plate reader, cherry pick, counter-screen for LGR2 antagonist project, dose response (AID 743444); assay type: functional;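 further: transfected HEK 293 cells stimulated with alpha-MSH peptide; potency of inhibitors of the alpha-MSH evoked signal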
[8] = blockers of bursicon-stimulated LGR2 cAMP reporter – cell-based, HEK293, CRE-luciferase reporter, cherry pick, set 2, dose response (AID 743343); assay type: functional;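 further: transfected cells were stimulated with diluted bursicon conditioned medium after compound addition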
[9] = toxicity toward HepG2 liver cells – cell-based, plate reader, cherry-pick, antagonist series, cytotoxicity control, dose response (AID 743416); assay type: functional
[10] = IGROV1 cell killing – plate reader, dry powder samples, PAX8 inhibitor project, dose response (AID 743043); assay type: functional, cell-based; details: IGROV-1
[11] = P. falciparum Dd2 growth inhibitors, dose response, SYBR Green, cherry-picked samples (AID 1159567); assay type: functional, cell-based
[12] = growth inhibition of PfATP4-mutant resistant parasites – NITD609-resistant line, SYBR Green, dry powder, dose response (AID 1159571); assay type: functional, cell-based;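 further: parasites synchronized at ring stage by sorbitol before testing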
[13] = viability loss in HEK293 cells – cell-based, plate reader, cherry-picked samples, cytotoxicity control, dose response (AID 743446); assay type: functional
[14] = toxicity toward immortalized ovarian surface epithelium – cell-based, plate reader, dry powder samples, cytotoxicity control for PAX8 inhibitor project, dose response (AID 743045); assay type: functional
[15] = OVCAR8 cell viability loss – plate reader, dry powder samples, PAX8 project, dose response (AID 743197); assay type: functional, cell-based; details: OVCAR-8
[16] = Dd2 malaria parasite growth inhibition potency – SYBR Green, dry powder samples, dose response (AID 1159566); assay type: functional, cell-based;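 further: potency for growth inhibition with lower SYBR green DNA signal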
[17] = A549 cell cytotoxicity, dose response, cytotoxicity control, plate reader, cherry-pick, antagonist series (AID 743412); assay type: functional, cell-based
Paired box protein Pax-8 = Paired box protein Pax-8 (Homo sapiens, UniProt Q06710); experiment: PAX8 transcriptional activity inhibition in RMG-I – RMG-I cells, luciferase, cherry-pick, dose response (AID 687027); assay type: functional, cell-based;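 further: luciferase reporter driven by Pax8 target thyroperoxidase promoter measured by SteadyGlo luminescence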
[18] = OVCAR-3 cell viability loss – plate reader, dry powder samples, PAX8 inhibitor project, dose response (AID 743044); assay type: functional, cell-based
[19] = biological target: RNA-editing ligase 1, mitochondrial (Trypanosoma brucei brucei, UniProt P86926); experiment: inhibition of trypanosome RNA editing ligase – biochemical, fluorescence, Trypanosoma brucei, dose response (AID 1117295); assay type: functional
[20] = biological target: T2, Carboxy-terminal domain RNA polymerase II polypeptide A small phosphatase 1 (Homo sapiens, UniProt Q9GZU7); experiment: CTDSP1 inhibitors, concentration-response, biochemical, absorbance readout, ultra-high-throughput screen actives (AID 540297); assay type: functional
T2 sequence (Q9GZU7 whole entry): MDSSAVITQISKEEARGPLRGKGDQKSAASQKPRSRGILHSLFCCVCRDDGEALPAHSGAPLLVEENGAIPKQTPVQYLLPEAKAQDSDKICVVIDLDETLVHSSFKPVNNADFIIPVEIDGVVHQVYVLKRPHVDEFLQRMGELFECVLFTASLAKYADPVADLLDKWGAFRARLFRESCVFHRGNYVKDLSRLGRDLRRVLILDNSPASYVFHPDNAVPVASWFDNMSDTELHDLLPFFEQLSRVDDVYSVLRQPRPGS

Caspase-6 = biological target: T3, Caspase-6 (Homo sapiens, UniProt P55212); experiment: inhibition of CASP6 peptide cleavage – biochemical, VEID-R110 fluorescence, cherry-pick, dose response (AID 720632)
T3 sequence (P55212 whole entry): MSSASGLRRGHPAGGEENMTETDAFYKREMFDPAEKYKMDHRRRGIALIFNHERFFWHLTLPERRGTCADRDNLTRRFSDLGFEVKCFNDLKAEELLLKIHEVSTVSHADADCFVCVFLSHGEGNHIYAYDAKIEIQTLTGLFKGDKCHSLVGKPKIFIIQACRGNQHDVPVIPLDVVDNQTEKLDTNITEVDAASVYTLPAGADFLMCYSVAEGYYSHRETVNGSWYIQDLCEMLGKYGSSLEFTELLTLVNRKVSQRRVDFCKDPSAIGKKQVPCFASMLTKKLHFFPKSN

[21] = biological target: Heat shock protein HSP 90-alpha (Homo sapiens, UniProt P07900); assay type: functional, organism-based
cells [22] = details: A549
cells [23] = details: HEK293
[24] = viability loss in HepG2 liver cells – cell-based, ATP luminescence, cherry-pick, set 6, cytotoxicity control, dose response (AID 1053125); assay type: functional
[25] = Luminescence Cell-Based Dose Retest to Confirm Inhibitors of Cancer Stem Cells. [Related pubchem assays (depositor defined):AID2717, AID2721]; assay type: functional; details: Homo sapiens
[26] = biological target: Signal transducer and activator of transcription 1-alpha/beta (Homo sapiens, UniProt P42224); experiment: inhibition of STAT1 reporter activity – cell-based, NIH 3T3, luciferase reporter, dose response (AID 1396); assay type: functional
Chain of Signal transducer and activator of transcription 1-alpha/beta (P42224 whole entry): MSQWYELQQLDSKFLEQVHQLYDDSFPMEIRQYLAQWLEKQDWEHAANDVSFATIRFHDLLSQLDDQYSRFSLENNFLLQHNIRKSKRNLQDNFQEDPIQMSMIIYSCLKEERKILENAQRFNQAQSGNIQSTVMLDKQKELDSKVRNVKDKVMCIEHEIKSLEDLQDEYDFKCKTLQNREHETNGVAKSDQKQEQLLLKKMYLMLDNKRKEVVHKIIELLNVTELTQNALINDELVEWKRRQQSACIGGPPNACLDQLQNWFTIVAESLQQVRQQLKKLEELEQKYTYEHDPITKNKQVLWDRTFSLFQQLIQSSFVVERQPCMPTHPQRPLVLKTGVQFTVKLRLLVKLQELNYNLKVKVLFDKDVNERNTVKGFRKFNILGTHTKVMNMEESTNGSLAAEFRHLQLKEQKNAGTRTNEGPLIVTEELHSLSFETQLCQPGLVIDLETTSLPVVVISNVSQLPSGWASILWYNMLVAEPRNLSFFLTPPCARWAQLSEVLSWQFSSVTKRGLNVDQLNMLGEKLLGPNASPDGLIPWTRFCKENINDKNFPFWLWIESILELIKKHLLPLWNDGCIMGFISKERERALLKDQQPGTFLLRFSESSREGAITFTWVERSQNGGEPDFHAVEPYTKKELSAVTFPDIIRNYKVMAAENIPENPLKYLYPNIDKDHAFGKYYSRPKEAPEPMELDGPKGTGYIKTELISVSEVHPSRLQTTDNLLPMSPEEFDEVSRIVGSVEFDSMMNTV

Chain of Paired box protein Pax-8 (Q06710 whole entry): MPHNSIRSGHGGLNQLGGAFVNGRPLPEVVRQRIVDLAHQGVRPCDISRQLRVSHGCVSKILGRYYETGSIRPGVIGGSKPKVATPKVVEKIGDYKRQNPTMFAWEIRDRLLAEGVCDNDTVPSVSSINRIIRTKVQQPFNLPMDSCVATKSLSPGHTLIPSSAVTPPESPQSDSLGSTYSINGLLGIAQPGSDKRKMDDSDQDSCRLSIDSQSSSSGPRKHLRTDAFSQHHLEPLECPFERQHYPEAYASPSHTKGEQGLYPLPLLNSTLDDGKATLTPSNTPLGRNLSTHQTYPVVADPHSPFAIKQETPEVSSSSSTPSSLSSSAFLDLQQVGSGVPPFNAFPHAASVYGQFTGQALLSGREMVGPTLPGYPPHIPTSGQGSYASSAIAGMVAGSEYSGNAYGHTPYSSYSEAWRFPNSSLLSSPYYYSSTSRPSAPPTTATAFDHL
Chain of RNA-editing ligase 1, mitochondrial (P86926 whole entry, the tested form may be a part): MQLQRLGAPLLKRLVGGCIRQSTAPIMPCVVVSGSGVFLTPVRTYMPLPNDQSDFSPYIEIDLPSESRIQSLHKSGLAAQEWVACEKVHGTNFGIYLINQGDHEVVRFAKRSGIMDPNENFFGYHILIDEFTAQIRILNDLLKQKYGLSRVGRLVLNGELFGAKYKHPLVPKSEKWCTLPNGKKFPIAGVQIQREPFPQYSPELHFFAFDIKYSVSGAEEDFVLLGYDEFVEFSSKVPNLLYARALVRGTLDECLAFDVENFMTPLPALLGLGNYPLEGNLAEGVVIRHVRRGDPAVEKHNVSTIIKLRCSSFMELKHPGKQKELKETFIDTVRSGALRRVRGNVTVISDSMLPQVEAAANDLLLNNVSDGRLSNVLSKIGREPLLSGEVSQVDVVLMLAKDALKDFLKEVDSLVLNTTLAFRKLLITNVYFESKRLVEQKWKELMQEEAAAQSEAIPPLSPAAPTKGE
Chain of G-protein coupled receptor 183 (P32249 whole entry, canonical isoform): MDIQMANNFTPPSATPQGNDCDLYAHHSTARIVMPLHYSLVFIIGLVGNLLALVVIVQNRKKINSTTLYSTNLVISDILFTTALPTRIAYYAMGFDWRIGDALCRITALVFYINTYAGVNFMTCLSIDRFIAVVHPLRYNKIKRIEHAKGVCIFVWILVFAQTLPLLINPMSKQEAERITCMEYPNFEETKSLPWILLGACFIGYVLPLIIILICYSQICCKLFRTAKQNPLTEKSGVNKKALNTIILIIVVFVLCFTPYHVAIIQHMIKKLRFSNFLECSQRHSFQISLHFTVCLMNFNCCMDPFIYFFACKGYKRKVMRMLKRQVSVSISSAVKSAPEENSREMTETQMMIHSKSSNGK

- IC50 [1]: 5.23 nM (active)
SMILES: O=C(/C=C/c1ccc(Br)cc1)N1CCN(Cc2ccc(Cl)cc2C(F)(F)F)CC1

- IC50 [2]: 12 µM (active)
- IC50 [3]: 5.72 µM (active)
SMILES: CN(C)CCNc1cc(-c2ccccc2)nc2ccccc12

SMILES: N#Cc1cccc(-c2ccc([C@@H]3[C@@H]4CN(C(=O)C5CC5)C[C@H]3N4)cc2)c1
- AC50 [4]: 2.84 µM (active)
- AC50 [5]: 405 nM (active)
- AC50 [6]: 9.05 µM (active)
- AC50 [7]: 2.49 µM (active)
- AC50 [8]: 2.62 µM (active)
- AC50 [9]: 5.88 µM (active)
- AC50 [10]: 7.63 µM (active)
- AC50 [11]: 489 nM (active)
- AC50 [12]: 455 nM (active)
- AC50 [13]: 13.1 µM (active)
- AC50 [14]: 68.8 µM (active)
- AC50 [15]: 4.43 µM (active)
- AC50 [16]: 267 nM (active)
- AC50 [17]: 1.97 µM (active)
- AC50 (Paired box protein Pax-8): 1.25 µM (active)
- AC50 [18]: 12.2 µM (active)

- IC50 [19]: 41 µM (inactive)
- IC50 [20]: 1.4 µM (active)
- AC50 (Caspase-6): 1.11 µM (active)
SMILES: O=C(N/N=C/c1ccc(OC(=O)c2ccccc2Cl)cc1)c1cc(O)cc(O)c1

SMILES: CCCCCCc1cc2cc(S(=O)(=O)c3ccc(Cl)cc3)c(=O)oc2cc1O
- AC50 [21]: 476 nM (active)
- AC50 (cells [22]): 35.6 µM (active)
- AC50 (cells [23]): > 52 µM (inactive)
- AC50 [24]: 41.4 µM (active)
- AC50 [25]: 797 nM (active)

- IC50 [26]: 16.9 µM (not active)
SMILES: O=C(c1ccco1)N1CCN(c2[nH]cnc3c4ccccc4nc2-3)CC1
